In the supplement of paper PMC10307832:

Columns and labels:
Assay in all cases: relative viability (nuclei count vs DMSO), 5 days (fraction); higher = more cells survive
NCI-H2023 = test system: NCI-H2023
Summary of the method: (§1)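 One day after seeding in 1536-well plates, lung cancer cell lines were dosed by pin tool. Dosing was either single-drug or a fixed anchor-drug dose plus five library-drug doses (not always all listed) in √10 steps. After 5 days, nuclei were stained in one fix-and-stain step and counted on 4× images, and relative viability is the nuclei count of treated wells over that of vehicle wells, given as the median of duplicate plates.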

NCI-H2085 = test system: NCI-H2085
Summary of the method: as §1

SK-LU-1 = test system: SK-LU-1
Summary of the method: as §1

PC-14 = test system: PC-14
Summary of the method: as §1

LCLC-97TM1 = test system: LCLC-97TM1
Summary of the method: as §1

NCI-H2342 = test system: NCI-H2342
Summary of the method: as §1

NCI-H2009 = test system: NCI-H2009
Summary of the method: as §1

EPLC-272H = test system: EPLC-272H
Summary of the method: as §1

H3255 = test system: H3255
Summary of the method: as §1

LXF-289 = test system: LXF-289
Summary of the method: as §1

NCI-H727 = test system: NCI-H727
Summary of the method: as §1

NCI-H1650 = test system: NCI-H1650
Summary of the method: as §1

HOP-62 = test system: HOP-62
Summary of the method: as §1

NCI-H2347 = test system: NCI-H2347
Summary of the method: as §1

NCI-H2126 = test system: NCI-H2126
Summary of the method: as §1

NCI-H322M = test system: NCI-H322M
Summary of the method: as §1

NCI-H1915 = test system: NCI-H1915
Summary of the method: as §1

SW 1573 = test system: SW 1573
Summary of the method: as §1

EMC-BAC-2 = test system: EMC-BAC-2
Summary of the method: as §1

NCI-H647 = test system: NCI-H647
Summary of the method: as §1

NCI-H1993 = test system: NCI-H1993
Summary of the method: as §1

NCI-H661 = test system: NCI-H661
Summary of the method: as §1

Q: For `CC1(C)CCC(c2ccc(Cl)cc2)=C(CN2CCN(c3ccc(C(=O)NS(=O)(=O)c4ccc(N[C@H](CCN5CCOCC5)CSc5ccccc5)c(S(=O)(=O)C(F)(F)F)c4)cc3)CC2)C1` [Navitoclax] + O=C(CCCCCCC(=O)Nc1ccccc1)NO [Vorinostat] (partner 1 µM), which relative viability (NCI-H2023; first compound 0.005 µM) is on record?
A: 0.744

Q: And the relative viability (NCI-H2023; first compound 0.01581 µM)?
A: 0.76

Q: And the relative viability (NCI-H2023; first compound 0.05 µM)?
A: 0.659

Q: What about the relative viability (NCI-H2023; first compound 0.1581 µM) of the same molecule?
A: 0.557

Q: And the relative viability (NCI-H2023; first compound 0.5 µM)?
A: 0.473

Q: What about the relative viability (NCI-H2085; first compound 0.005 µM) of the same molecule?
A: 0.817

Q: What about the relative viability (NCI-H2085; first compound 0.01581 µM) of the same molecule?
A: 0.998

Q: What about the relative viability (NCI-H2085; first compound 0.05 µM) of the same molecule?
A: 0.568

Q: And the relative viability (NCI-H2085; first compound 0.1581 µM)?
A: 0.844

Q: What about the relative viability (NCI-H2085; first compound 0.5 µM) of the same molecule?
A: 0.834

Q: What about the relative viability (SK-LU-1; first compound 0.005 µM) of the same molecule?
A: 0.787

Q: And the relative viability (SK-LU-1; first compound 0.01581 µM)?
A: 0.776

Q: What about the relative viability (SK-LU-1; first compound 0.05 µM) of the same molecule?
A: 0.689

Q: And the relative viability (SK-LU-1; first compound 0.1581 µM)?
A: 0.627

Q: What about the relative viability (SK-LU-1; first compound 0.5 µM) of the same molecule?
A: 0.516

Q: What about the relative viability (PC-14; first compound 0.005 µM) of the same molecule?
A: 0.746

Q: What about the relative viability (PC-14; first compound 0.01581 µM) of the same molecule?
A: 0.794

Q: And the relative viability (PC-14; first compound 0.05 µM)?
A: 0.59

Q: And the relative viability (PC-14; first compound 0.1581 µM)?
A: 0.712

Q: And the relative viability (PC-14; first compound 0.5 µM)?
A: 0.687

Q: What about the relative viability (LCLC-97TM1; first compound 0.005 µM) of the same molecule?
A: 0.857

Q: What about the relative viability (LCLC-97TM1; first compound 0.01581 µM) of the same molecule?
A: 0.745

Q: And the relative viability (LCLC-97TM1; first compound 0.05 µM)?
A: 0.659

Q: What about the relative viability (LCLC-97TM1; first compound 0.1581 µM) of the same molecule?
A: 0.717

Q: And the relative viability (LCLC-97TM1; first compound 0.5 µM)?
A: 0.979

Q: And the relative viability (NCI-H2342; first compound 0.005 µM)?
A: 0.752

Q: And the relative viability (NCI-H2342; first compound 0.01581 µM)?
A: 0.732

Q: What about the relative viability (NCI-H2342; first compound 0.05 µM) of the same molecule?
A: 0.814

Q: What about the relative viability (NCI-H2342; first compound 0.1581 µM) of the same molecule?
A: 0.804

Q: What about the relative viability (NCI-H2342; first compound 0.5 µM) of the same molecule?
A: 0.779

Q: And the relative viability (NCI-H2009; first compound 0.005 µM)?
A: 0.719

Q: What about the relative viability (NCI-H2009; first compound 0.01581 µM) of the same molecule?
A: 0.88

Q: What about the relative viability (NCI-H2009; first compound 0.05 µM) of the same molecule?
A: 0.759

Q: And the relative viability (NCI-H2009; first compound 0.1581 µM)?
A: 0.728

Q: And the relative viability (NCI-H2009; first compound 0.5 µM)?
A: 0.719

Q: And the relative viability (EPLC-272H; first compound 0.005 µM)?
A: 0.521

Q: And the relative viability (EPLC-272H; first compound 0.01581 µM)?
A: 0.561

Q: What about the relative viability (EPLC-272H; first compound 0.05 µM) of the same molecule?
A: 0.292

Q: What about the relative viability (EPLC-272H; first compound 0.1581 µM) of the same molecule?
A: 0.385

Q: And the relative viability (EPLC-272H; first compound 0.5 µM)?
A: 0.282

Q: And the relative viability (H3255; first compound 0.005 µM)?
A: 0.787

Q: What about the relative viability (H3255; first compound 0.01581 µM) of the same molecule?
A: 0.958

Q: And the relative viability (H3255; first compound 0.05 µM)?
A: 0.874

Q: What about the relative viability (H3255; first compound 0.1581 µM) of the same molecule?
A: 0.794

Q: And the relative viability (H3255; first compound 0.5 µM)?
A: 0.586

Q: What about the relative viability (LXF-289; first compound 0.005 µM) of the same molecule?
A: 0.752

Q: What about the relative viability (LXF-289; first compound 0.01581 µM) of the same molecule?
A: 0.842

Q: And the relative viability (LXF-289; first compound 0.05 µM)?
A: 0.697

Q: What about the relative viability (LXF-289; first compound 0.1581 µM) of the same molecule?
A: 0.799

Q: What about the relative viability (LXF-289; first compound 0.5 µM) of the same molecule?
A: 0.814

Q: And the relative viability (NCI-H727; first compound 0.005 µM)?
A: 1.28

Q: And the relative viability (NCI-H727; first compound 0.01581 µM)?
A: 1.34

Q: And the relative viability (NCI-H727; first compound 0.05 µM)?
A: 0.901

Q: And the relative viability (NCI-H727; first compound 0.1581 µM)?
A: 1.12

Q: And the relative viability (NCI-H727; first compound 0.5 µM)?
A: 1.16

Q: What about the relative viability (NCI-H1650; first compound 0.005 µM) of the same molecule?
A: 0.5

Q: What about the relative viability (NCI-H1650; first compound 0.01581 µM) of the same molecule?
A: 0.66

Q: What about the relative viability (NCI-H1650; first compound 0.05 µM) of the same molecule?
A: 0.671

Q: What about the relative viability (NCI-H1650; first compound 0.1581 µM) of the same molecule?
A: 0.63

Q: And the relative viability (NCI-H1650; first compound 0.5 µM)?
A: 0.651

Q: What about the relative viability (HOP-62; first compound 0.005 µM) of the same molecule?
A: 0.669

Q: And the relative viability (HOP-62; first compound 0.01581 µM)?
A: 0.644

Q: What about the relative viability (HOP-62; first compound 0.05 µM) of the same molecule?
A: 0.618

Q: And the relative viability (HOP-62; first compound 0.1581 µM)?
A: 0.529

Q: And the relative viability (HOP-62; first compound 0.5 µM)?
A: 0.842

Q: What about the relative viability (NCI-H2347; first compound 0.005 µM) of the same molecule?
A: 0.623

Q: What about the relative viability (NCI-H2347; first compound 0.01581 µM) of the same molecule?
A: 0.628

Q: And the relative viability (NCI-H2347; first compound 0.05 µM)?
A: 0.534

Q: What about the relative viability (NCI-H2347; first compound 0.1581 µM) of the same molecule?
A: 0.61

Q: And the relative viability (NCI-H2347; first compound 0.5 µM)?
A: 0.542

Q: What about the relative viability (NCI-H2126; first compound 0.005 µM) of the same molecule?
A: 0.789

Q: What about the relative viability (NCI-H2126; first compound 0.01581 µM) of the same molecule?
A: 0.875

Q: And the relative viability (NCI-H2126; first compound 0.05 µM)?
A: 0.795

Q: What about the relative viability (NCI-H2126; first compound 0.1581 µM) of the same molecule?
A: 0.761

Q: What about the relative viability (NCI-H2126; first compound 0.5 µM) of the same molecule?
A: 0.681

Q: And the relative viability (NCI-H322M; first compound 0.005 µM)?
A: 1.02

Q: And the relative viability (NCI-H322M; first compound 0.01581 µM)?
A: 1.06

Q: And the relative viability (NCI-H322M; first compound 0.05 µM)?
A: 0.908

Q: What about the relative viability (NCI-H322M; first compound 0.1581 µM) of the same molecule?
A: 0.843

Q: And the relative viability (NCI-H322M; first compound 0.5 µM)?
A: 0.999

Q: What about the relative viability (NCI-H1915; first compound 0.005 µM) of the same molecule?
A: 0.497

Q: And the relative viability (NCI-H1915; first compound 0.01581 µM)?
A: 0.499

Q: And the relative viability (NCI-H1915; first compound 0.05 µM)?
A: 0.556

Q: And the relative viability (NCI-H1915; first compound 0.1581 µM)?
A: 0.481

Q: And the relative viability (NCI-H1915; first compound 0.5 µM)?
A: 0.424

Q: And the relative viability (SW 1573; first compound 0.005 µM)?
A: 0.607

Q: And the relative viability (SW 1573; first compound 0.01581 µM)?
A: 0.9

Q: What about the relative viability (SW 1573; first compound 0.05 µM) of the same molecule?
A: 0.683

Q: What about the relative viability (SW 1573; first compound 0.1581 µM) of the same molecule?
A: 0.475

Q: What about the relative viability (SW 1573; first compound 0.5 µM) of the same molecule?
A: 0.597

Q: What about the relative viability (EMC-BAC-2; first compound 0.005 µM) of the same molecule?
A: 0.413

Q: And the relative viability (EMC-BAC-2; first compound 0.01581 µM)?
A: 0.507

Q: And the relative viability (EMC-BAC-2; first compound 0.05 µM)?
A: 0.548

Q: What about the relative viability (EMC-BAC-2; first compound 0.1581 µM) of the same molecule?
A: 0.422

Q: What about the relative viability (EMC-BAC-2; first compound 0.5 µM) of the same molecule?
A: 0.418

Q: And the relative viability (NCI-H647; first compound 0.005 µM)?
A: 0.536

Q: And the relative viability (NCI-H647; first compound 0.01581 µM)?
A: 0.52

Q: And the relative viability (NCI-H647; first compound 0.05 µM)?
A: 0.673

Q: And the relative viability (NCI-H647; first compound 0.1581 µM)?
A: 0.405

Q: And the relative viability (NCI-H647; first compound 0.5 µM)?
A: 0.512

Q: And the relative viability (NCI-H1993; first compound 0.005 µM)?
A: 0.74

Q: What about the relative viability (NCI-H1993; first compound 0.01581 µM) of the same molecule?
A: 0.81

Q: And the relative viability (NCI-H1993; first compound 0.05 µM)?
A: 1

Q: What about the relative viability (NCI-H1993; first compound 0.1581 µM) of the same molecule?
A: 0.708

Q: And the relative viability (NCI-H1993; first compound 0.5 µM)?
A: 0.703

Q: What about the relative viability (NCI-H661; first compound 0.005 µM) of the same molecule?
A: 0.769

Q: What about the relative viability (NCI-H661; first compound 0.01581 µM) of the same molecule?
A: 0.727

Q: And the relative viability (NCI-H661; first compound 0.05 µM)?
A: 0.809

Q: What about the relative viability (NCI-H661; first compound 0.1581 µM) of the same molecule?
A: 0.763

Q: What about the relative viability (NCI-H661; first compound 0.5 µM) of the same molecule?
A: 0.772
